One data set concerns THP-1. Nature of the data set: Inhibition of LPS-stimulated TNFalpha production in THP1 cells. The class given is functional, cell-based. The conditions noted are these: Homo sapiens.
Data set [1] in a line: Aqueous solubility at pH 7.4. The class given is physicochemical.
Data set [2] has as its target Mitogen-activated protein kinase 9 (Homo sapiens, UniProt P45984). Nature of the data set: Inhibition of Jnk2alpha2.

Structures are written as SMILES. In brackets after ≈: the same amount, converted by molar mass. Some results are limits rather than exact numbers.

Mitogen-activated protein kinase 9, sequence (P45984 whole entry): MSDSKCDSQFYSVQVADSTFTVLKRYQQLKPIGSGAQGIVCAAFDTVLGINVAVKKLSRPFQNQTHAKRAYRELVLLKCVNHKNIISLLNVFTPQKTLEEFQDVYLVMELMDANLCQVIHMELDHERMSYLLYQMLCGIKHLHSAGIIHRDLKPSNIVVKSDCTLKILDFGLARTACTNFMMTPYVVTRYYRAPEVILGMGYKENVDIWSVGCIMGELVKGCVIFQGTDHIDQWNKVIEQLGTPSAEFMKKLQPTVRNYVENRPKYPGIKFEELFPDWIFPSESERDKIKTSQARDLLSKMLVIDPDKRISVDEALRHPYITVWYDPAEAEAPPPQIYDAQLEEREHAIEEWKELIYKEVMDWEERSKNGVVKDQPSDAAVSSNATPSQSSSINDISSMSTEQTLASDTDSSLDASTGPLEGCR

As a reminder, the EC50 is the concentration needed to bring the measured effect to its halfway point. High values mean a less potent agent, low ones a more potent agent. In the data set on THP-1, `O=c1[nH]c2cc(Nc3ccccc3F)ccc2n1CC1CCCCC1` showed an EC50 of 66 nM.

In the data set with THP-1, `O=c1[nH]c2cc(Nc3ccccc3)ccc2n1C1CCCC1` had an EC50 of 150 nM.

The compound `Cc1ccccc1Nc1cc2[nH]c(=O)n(CC3CCCCC3)c2cc1N1CCN(C)CC1` had an EC50 with THP-1 of 180 nM.

Compound `O=c1[nH]c2cc(Nc3cc(Cl)cc(Cl)c3)ccc2n1CC1CCCCC1` yielded an EC50 in the data set on THP-1 of more than 10000 nM.

`O=C(c1ccccc1)c1ccc2[nH]c(=O)[nH]c2c1` came in with an EC50 in the data set on THP-1 of more than 5000 nM.

For the compound `O=c1[nH]c2cc(Nc3ccccc3)ccc2n1Cc1ccccc1`, a half-maximal response in the data set with THP-1 (EC50) required 320 nM.

For `O=c1[nH]c2cc(Nc3ccc(F)c(F)c3)ccc2n1CC1CCCCC1`, the half-maximal effective concentration (EC50) in the data set on THP-1 was 420 nM. This EC50 and that of the compound before are within 1.5-fold of each other.

Broadly, the solubility is how much of the substance goes into solution per volume. A high value points to much dissolved substance. `O=c1[nH]c2cc(Nc3ccccc3)ccc2n1CC1CCCCC1`: the EC50 in the data set on THP-1 was found to be 270 nM. For the same compound, in data set [1], the solubility worked out at 0.2 µM (≈ 0.0643 µg/mL).

In turn, `CN1CCN(c2cc3c(cc2Nc2ccccc2)[nH]c(=O)n3CC2CCCCC2)CC1` showed a concentration giving a half-maximal response (EC50) with THP-1 of 150 nM. This compound yielded a solubility in data set [1] of 5.7 µM (≈ 2.39 µg/mL).

Turning to `Cc1ccccc1Nc1ccc2c(c1)[nH]c(=O)n2CC1CCCCC1`, the EC50 with THP-1 stood at 64 nM.

As to `O=C(c1ccccc1)c1ccc2c(c1)[nH]c(=O)n2Cc1ccccc1`, the 50% effective concentration (EC50) with THP-1 came to 1000 nM.

With `O=c1[nH]c2cc(Nc3ccccc3)c(N3CCNCC3)cc2n1CC1CCCCC1`, the EC50 in the data set with THP-1 turned out to be 150 nM.

In the data set on THP-1, `CC(C)(CN)n1c(=O)[nH]c2cc(Nc3ccccc3)ccc21` came in with an EC50 of 3400 nM.

Take `O=c1[nH]c2cc(Oc3ccccc3)ccc2n1CC1CCCCC1`: in the data set with THP-1, the EC50 stood at 250 nM.

What is called IC50 is the concentration that inhibits the measured activity by half. Read a low IC50 as inhibition by little substance. `O=c1[nH]c2cc(Nc3ccc(F)cc3F)ccc2n1CC1CCCCC1` displayed an EC50 in the data set with THP-1 of 46 nM. Also, the IC50 in data set [2] turned out to be 5500 nM.

`Cn1c(=O)[nH]c2cc(C(=O)c3ccccc3)ccc21` returned a 50% effective concentration (EC50) with THP-1 of more than 5000 nM.

In the data set on THP-1, `O=C(c1ccccc1)c1ccc2c(c1)[nH]c(=O)n2CC1CCCCC1` yielded an EC50 of 880 nM.

Consider `O=c1[nH]c2cc(Nc3ccc(F)cc3)ccc2n1CC1CCCCC1`, for which, in the data set on THP-1, the concentration for a half-maximal effect (EC50) amounted to 74 nM.

In the data set on THP-1, `O=c1[nH]c2cc(Nc3ccccc3)ccc2n1Cc1c(F)cccc1F` showed an EC50 of 220 nM.

In the data set with THP-1, `O=c1[nH]c2cc(Nc3ccccc3)ccc2n1C1CCNC1` (configuration not stated) showed a half-maximal effective concentration (EC50) of 1100 nM. This EC50 lies about 5-fold higher than the previous one.

Compound `N=C(N)c1ccc(Cn2c(=O)[nH]c3cc(C(=O)c4ccccc4)ccc32)cc1` yielded an EC50 in the data set with THP-1 of more than 10000 nM.

`O=c1[nH]c2cc(Nc3cccc(F)c3)ccc2n1CC1CCCCC1` yielded an EC50 with THP-1 of 190 nM.

In the case of `CC(C)(C)n1c(=O)[nH]c2cc(Nc3ccccc3)ccc21`, the midpoint of the response in the data set on THP-1, the EC50, lay at 74 nM.

In the data set with THP-1, `O=c1[nH]c2cc(Nc3cccc(C(F)(F)F)c3)ccc2n1CC1CCCCC1` yielded a concentration giving a half-maximal response (EC50) of 2300 nM.

Values taken from ChEMBL document CHEMBL1146166, “Discovery and design of benzimidazolone based inhibitors of p38 MAP kinase” (Bioorg Med Chem Lett, 2006).
